From ChEMBL document CHEMBL3727364, “Resorcinol n-aryl amide compounds, for use as pyruvate dehydrogenase kinase inhibitors” (2015) come the findings set out here.

The target of the test is [Pyruvate dehydrogenase (acetyl-transferring)] kinase isozyme 1, mitochondrial (Homo sapiens, UniProt Q15118). Put plainly: Binding affinity to pyruvate dehydrogenase kinase 1 (unknown origin) incubated for 90 mins by VER-00160364 probe based fluorescence polarization assay. On the technique in general: Fluorescence polarisation rises when a labelled molecule tumbles more slowly, as on binding a larger partner.
Chain of [Pyruvate dehydrogenase (acetyl-transferring)] kinase isozyme 1, mitochondrial (Q15118 whole entry): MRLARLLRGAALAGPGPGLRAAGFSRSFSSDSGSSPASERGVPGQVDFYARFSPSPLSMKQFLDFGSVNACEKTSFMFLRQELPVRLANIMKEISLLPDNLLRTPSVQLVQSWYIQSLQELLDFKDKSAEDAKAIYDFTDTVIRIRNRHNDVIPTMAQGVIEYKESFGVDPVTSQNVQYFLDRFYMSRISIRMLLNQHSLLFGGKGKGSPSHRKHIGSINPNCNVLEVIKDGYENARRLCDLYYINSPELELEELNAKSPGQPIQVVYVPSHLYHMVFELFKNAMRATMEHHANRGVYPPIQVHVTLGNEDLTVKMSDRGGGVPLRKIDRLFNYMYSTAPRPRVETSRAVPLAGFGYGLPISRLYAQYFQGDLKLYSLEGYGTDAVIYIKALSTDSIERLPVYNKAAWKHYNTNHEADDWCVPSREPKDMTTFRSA
For `Cc1cnc(C)c(-c2ccc(N(Cc3ccccc3)C(=O)c3ccc(O)cc3O)cc2)n1`, the IC50 was found to be 100 nM. For `Cc1cc2[nH]c(=O)[nH]c2cc1-c1ccc(N(Cc2ccccc2)C(=O)c2ccc(O)cc2O)cc1` the value was 10000 nM; for `O=C(c1ccc(O)cc1O)N(Cc1ccccc1)c1ccc(-c2ccccc2Cl)cc1`, 10 nM; for `CCc1nccnc1-c1ccc(N(Cc2ccccc2)C(=O)c2ccc(O)cc2O)cc1`, 100 nM. The result for `Cc1cc2ccccc2nc1-c1ccc(N(Cc2ccc(-c3ccccc3)cc2)C(=O)c2ccc(O)cc2O)cc1` reads 100 nM. For `Cc1c(Cl)nc(Cl)nc1-c1ccc(N(Cc2ccccc2)C(=O)c2ccc(O)cc2O)cc1` the value was 1000 nM; for `COc1ccc2nc(-c3ccc(N(Cc4ccccc4)C(=O)c4ccc(O)cc4O)cc3)c(C)cc2c1`, 100 nM. Molecule `O=C(c1ccc(O)cc1O)N(Cc1ccccc1)c1ccc(-c2nc3ccccc3nc2C(F)(F)F)cc1` registered an IC50 of 1000 nM. As for `Cc1ccc(C)c(-c2ccc(N(Cc3ccccc3)C(=O)c3ccc(O)cc3O)cc2)n1`, the concentration for half-maximal inhibition (IC50) was determined as 10 nM. For `Cc1c(-c2ccc(N(Cc3ccccc3)C(=O)c3ccc(O)cc3O)cc2)ccc2[nH]ncc12` the value was 1000 nM; for `Cc1cn(-c2ccc(-c3ccc(N(Cc4ccccc4)C(=O)c4ccc(O)cc4O)cc3)nn2)cn1`, 1000 nM; for `O=C(c1ccc(O)cc1O)N(Cc1ccccc1)c1ccc(-c2ccc(N3CCOCC3)nn2)cc1`, 1000 nM.

In the case of `Cc1cnc(C#N)nc1-c1ccc(N(Cc2ccccc2)C(=O)c2ccc(O)cc2O)cc1`, the IC50 was 100 nM. For `O=C(c1ccc(O)cc1O)N(Cc1ccccc1)c1ccc(-c2nncc3ccccc23)cc1` the value was 1000 nM; for `Cc1cc(N(Cc2ccccc2)C(=O)c2ccc(O)cc2O)ccc1-c1nc(Cl)ncc1C`, 1000 nM.

Regarding `NC(=O)c1nc(-c2ccc(N(Cc3ccccc3)C(=O)c3ccc(O)cc3O)cc2)c2ccccc2n1`, the half-maximal inhibitory concentration (IC50) came to 10000 nM. For `Cc1nc(-c2ccc(N(Cc3ccccc3)C(=O)c3ccc(O)cc3O)cc2)c2ccccc2n1` the value was 1000 nM; for `Nc1ccc(-c2ccc(N(Cc3ccccc3)C(=O)c3ccc(O)cc3O)cc2)nn1`, 100 nM; for `Cc1cnc(Cl)nc1-c1ccc(N(Cc2cccc(Cn3ccnc3)c2)C(=O)c2cc(Cl)c(O)cc2O)cc1`, 10 nM.

Take `C#Cc1ncc(C)c(-c2ccc(N(Cc3ccccc3)C(=O)c3ccc(O)cc3O)cc2)n1`: the IC50 was 1000 nM. The result for `Cc1ncc(C)c(-c2ccc(N(Cc3ccccc3)C(=O)c3cc(Cl)c(O)cc3O)cc2)n1` reads 100 nM; that for `O=C(c1ccc(O)cc1O)N(Cc1ccccc1)c1ccc(-c2cnc3ccccc3n2)cc1`, 10000 nM.

`CNc1nccc(-c2ccc(N(Cc3ccccc3)C(=O)c3ccc(O)cc3O)cc2)n1`: the IC50 stood at 10000 nM. The result for `O=C(c1ccc(O)cc1O)N(Cc1ccccc1)c1ccc(-c2nc3ccc(Cl)cc3cc2CO)cc1` reads 1000 nM; that for `Cc1nccnc1-c1ccc(N(Cc2ccccc2)C(=O)c2ccc(O)cc2O)cc1`, 1000 nM; that for `O=C(c1ccc(O)cc1O)N(Cc1ccccc1)c1ccc(-c2ncnc3ccc(Cl)cc23)cc1`, 100 nM. For `Cc1cnc(Cl)nc1-c1ccc(N(Cc2ccc(C#N)cc2)C(=O)c2ccc(O)cc2O)cc1` the value was 100 nM; for `O=C(c1ccc(O)cc1O)N(Cc1ccccc1)c1ccc(-c2ccc(NC3CC3)nn2)cc1`, 100 nM. For `O=C(c1ccc(O)cc1O)N(Cc1ccccc1)c1ccc(-c2nc3ccccc3cc2CO)cc1` the value was 10000 nM; for `COc1cnc(Cl)nc1-c1ccc(N(Cc2ccccc2)C(=O)c2ccc(O)cc2O)cc1C`, 1000 nM; for `Cc1cnc(-c2cccnc2)nc1-c1ccc(N(Cc2ccccc2)C(=O)c2ccc(O)cc2O)cc1`, 1000 nM.

For `Cc1cncnc1-c1ccc(N(Cc2ccccc2)C(=O)c2ccc(O)cc2O)cc1`, the IC50 came out at 100 nM. `O=C(c1ccc(O)cc1O)N(Cc1ccccc1)c1ccc(-c2ccc(N3CCCC3)nn2)cc1` came in with an IC50 of 1000 nM.

Turning to `Cc1cnc(N(C)C)nc1-c1ccc(N(Cc2ccccc2)C(=O)c2ccc(O)cc2O)cc1`, the IC50 stood at 100 nM. In the case of `CCOC(=O)c1nc(-c2ccc(N(Cc3ccccc3)C(=O)c3ccc(O)cc3O)cc2)c2ccccc2n1`, the IC50 turned out to be 10000 nM. The result for `Cc1nccnc1-c1ccc(N(Cc2ccccc2)C(=O)c2ccc(O)cc2O)cc1F` reads 1000 nM; that for `Cc1cc(N(Cc2ccccc2)C(=O)c2ccc(O)cc2O)ccc1-c1nc2cc(F)ccc2cc1C`, 100 nM; that for `Cc1cnc(NC(C)C)nc1-c1ccc(N(Cc2ccccc2)C(=O)c2ccc(O)cc2O)cc1`, 10000 nM. The result for `Cc1cnc(Cl)nc1-c1ccc(N(C(=O)c2ccc(O)cc2O)C(C)c2ccccc2)cc1` (stereo not given) reads 1000 nM; that for `Cc1cnc(Cl)nc1-c1ccc(N(Cc2ccccc2)C(=O)c2cc(Cl)c(O)cc2O)cc1`, 10 nM. `O=C(c1ccc(O)cc1O)N(Cc1ccccc1)c1ccc(-c2nc(-c3ccsc3)nc3ccccc23)cc1` displayed an IC50 of 100 nM. The molecule `O=C(c1ccc(O)cc1O)N(Cc1ccccc1)c1ccc(-c2nc(-c3ccccc3)nc3ccccc23)cc1` registered a 50% inhibitory concentration (IC50) of 100 nM. As for `Cc1ncc(C)c(-c2ccc(N(Cc3ccccc3)C(=O)c3ccc(O)cc3O)cc2)n1`, the IC50 was 100 nM.

As to `N#Cc1cncnc1-c1ccc(N(Cc2ccccc2)C(=O)c2ccc(O)cc2O)cc1`, the IC50 came out at 1000 nM. For the molecule `O=C(c1ccc(O)cc1O)N(Cc1ccccc1)c1ccc(-c2ccc(-n3ccnc3)nn2)cc1`, the 50% inhibitory concentration (IC50) is 100 nM. For `Cc1cnc(Cl)nc1-c1ccc(N(C(=O)c2ccc(O)cc2O)[C@H](C)c2ccccc2)cc1` the value was 100 nM; for `Cc1cnc(-c2ccccc2)nc1-c1ccc(N(Cc2ccccc2)C(=O)c2ccc(O)cc2O)cc1`, 1000 nM; for `Cc1cc2ccccc2nc1-c1ccc(N(Cc2ccccc2)C(=O)c2cc(Cl)c(O)cc2O)cc1`, 1000 nM. The result for `Cc1cnc(Cl)nc1-c1ccc(N(Cc2ccccc2)C(=O)c2ccc(O)cc2O)cc1F` reads 100 nM.

`O=C(O)c1nc(-c2ccc(N(Cc3ccccc3)C(=O)c3ccc(O)cc3O)cc2)c2ccccc2n1` showed a half-maximal inhibitory concentration (IC50) of 1000 nM. For `Cc1nc(-c2ccc(N(Cc3ccccc3)C(=O)c3ccc(O)cc3O)cc2C)c2ccccc2n1` the value was 100 nM; for `Cc1cc(C(=O)N(Cc2ccccc2)c2ccc(-c3nc(Cl)ncc3C)cc2)c(O)cc1O`, 100 nM.

The molecule `Cc1nccn1-c1ccc(-c2ccc(N(Cc3ccccc3)C(=O)c3ccc(O)cc3O)cc2)nn1` yielded an IC50 of 10 nM. For `CSc1nc(-c2ccc(N(Cc3ccccc3)C(=O)c3ccc(O)cc3O)cc2)c2cc[nH]c2n1` the value was 1000 nM. The molecule `O=C(c1ccc(O)cc1O)N(Cc1ccccc1)c1ccc(-c2ncnc3cccc(F)c23)cc1` returned a concentration for half-maximal inhibition (IC50) of 1000 nM. The result for `Cc1ccc(CN(C(=O)c2ccc(O)cc2O)c2ccc(-c3nc(C)ncc3C)cc2)cc1` reads 10 nM; that for `Cc1cc2ccc(F)cc2nc1-c1ccc(N(Cc2ccccc2)C(=O)c2ccc(O)cc2O)cc1F`, 100 nM.

Molecule `Cc1cnc(-c2cccc(F)c2)nc1-c1ccc(N(Cc2ccccc2)C(=O)c2ccc(O)cc2O)cc1` returned a concentration for half-maximal inhibition (IC50) of 1000 nM. `Cc1cc(N)cnc1-c1ccc(N(Cc2ccccc2)C(=O)c2ccc(O)cc2O)cc1`: the IC50 came out at 100 nM. The result for `O=C(c1ccc(O)cc1O)N(Cc1ccccc1)c1ccc(-c2ncccc2CO)cc1` reads 1000 nM.

Usually IC50 stands for the concentration that inhibits the measured activity by half. Read a low IC50 as inhibition by little substance.
